What was measured:
Experiment in all cases: relative viability (nuclei count vs DMSO), 5 days (fraction); higher = more cells survive
RO-3306 + Palbociclib = compound: C1=CC2=C(C=CC(=C2)C=C3C(=O)NC(=NCC4=CC=CS4)S3)N=C1 [RO-3306] + CC(=O)c1c(C)c2cnc(Nc3ccc(N4CCNCC4)cn3)nc2n(C2CCCC2)c1=O [Palbociclib] (partner 0.5 µM)
In short: (§1)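 Lung cancer cell lines, seeded in 1536-well plates, were treated the following day by pin tool with a single drug or with five library-drug doses (not always all listed) in √10 steps on top of a fixed anchor-drug dose. Cells were fixed and nuclei stained in one step after 5 days, and nuclei were counted. Relative viability is the nuclei count for treated wells divided by that for vehicle wells, reported as medians of duplicate plates.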

[1] = compound: O=S(=O)(c1ccccc1)N(CC(F)(F)F)c1ccc(C(O)(C(F)(F)F)C(F)(F)F)cc1 + CC(=O)c1c(C)c2cnc(Nc3ccc(N4CCNCC4)cn3)nc2n(C2CCCC2)c1=O [Palbociclib] (partner 0.5 µM)
In short: as §1

[2] = compound: O=S(=O)(c1ccccc1)N(CC(F)(F)F)c1ccc(C(O)(C(F)(F)F)C(F)(F)F)cc1 + CC1(C)CCC(c2ccc(Cl)cc2)=C(CN2CCN(c3ccc(C(=O)NS(=O)(=O)c4ccc(N[C@H](CCN5CCOCC5)CSc5ccccc5)c(S(=O)(=O)C(F)(F)F)c4)cc3)CC2)C1 [Navitoclax] (partner 0.5 µM)
In short: as §1

[3] = compound: O=S(=O)(c1ccccc1)N(CC(F)(F)F)c1ccc(C(O)(C(F)(F)F)C(F)(F)F)cc1 + C[C@]1(O)C[C@@H](c2nc(-c3ccc4ccc(-c5ccccc5)nc4c3)c3c(N)nccn32)C1 [Linsitinib] (partner 1 µM)
In short: as §1

[4] = compound: O=S(=O)(c1ccccc1)N(CC(F)(F)F)c1ccc(C(O)(C(F)(F)F)C(F)(F)F)cc1 + N=C(N)NC(=N)NCCc1ccccc1 [Phenformin] (partner 250 µM)
In short: as §1

[5] = compound: O=S(=O)(c1ccccc1)N(CC(F)(F)F)c1ccc(C(O)(C(F)(F)F)C(F)(F)F)cc1 + NC(=O)Nc1cc(-c2cccc(F)c2)sc1C(=O)N[C@H]1CCCNC1 [AZD7762] (partner 0.2 µM)
In short: as §1

Row | Cell Line | relative viability (RO-3306 + Palbociclib; first compound 0.01 µM) | relative viability (RO-3306 + Palbociclib; first compound 0.03162 µM) | relative viability (RO-3306 + Palbociclib; first compound 0.1 µM) | relative viability (RO-3306 + Palbociclib; first compound 0.3162 µM) | relative viability (RO-3306 + Palbociclib; first compound 1 µM) | relative viability ([1]; first compound 0.8 µM) | relative viability ([1]; first compound 2.53 µM) | relative viability ([1]; first compound 8 µM) | relative viability ([2]; first compound 0.8 µM) | relative viability ([2]; first compound 2.53 µM) | relative viability ([2]; first compound 8 µM) | relative viability ([3]; first compound 0.8 µM) | relative viability ([3]; first compound 2.53 µM) | relative viability ([3]; first compound 8 µM) | relative viability ([4]; first compound 0.8 µM) | relative viability ([4]; first compound 2.53 µM) | relative viability ([4]; first compound 8 µM) | relative viability ([5]; first compound 0.8 µM) | relative viability ([5]; first compound 2.53 µM) | relative viability ([5]; first compound 8 µM)
1 | NCI-H1993 | 0.636 | 0.633 | 0.611 | 0.552 | 0.583 | 0.57 | 0.511 | 0.594 | 0.867 | 0.691 | 0.788 | 0.7 | 0.721 | 0.806 | 0.522 | 0.529 | 0.469 | 0.69 | 0.657 | 0.774
2 | NCI-H2085 | 0.448 | 0.48 | 0.506 | 0.446 | 0.471 | 0.432 | 0.431 | 0.413 | 1.14 | 1 | 1.03 | 1.07 | 0.888 | 0.844 | 0.805 | 0.695 | 0.741 | 0.941 | 0.799 | 0.913
3 | NCI-H2087 | 0.226 | 0.233 | 0.171 | 0.238 | 0.197 | 0.253 | 0.183 | 0.261 | 1.03 | 0.942 | 0.916 | 0.921 | 0.95 | 0.961 | 0.512 | 0.456 | 0.341 | 1.4 | 1.31 | 1.31
4 | NCI-H2126 | 0.326 | 0.363 | 0.369 | 0.346 | 0.373 | 0.344 | 0.345 | 0.355 | 0.892 | 0.824 | 0.877 | 0.783 | 0.718 | 0.739 | 0.578 | 0.533 | 0.518 | 1.19 | 1.1 | 0.999
5 | NCI-H2347 | 0.475 | 0.438 | 0.397 | 0.387 | 0.417 | 0.42 | 0.374 | 0.395 | 0.955 | 0.921 | 0.582 | 1.1 | 1.01 | 0.825 | 0.462 | 0.38 | 0.342 | 0.942 | 0.724 | 0.742
6 | NCI-H2405 | 0.553 | 0.45 | 0.562 | 0.518 | 0.494 | 0.554 | 0.506 | 0.55 | 1.11 | 1.01 | 0.896 | 1.05 | 0.913 | 0.983 | 0.386 | 0.402 | 0.396 | 0.907 | 0.665 | 0.705
7 | NCI-H3122 | 0.188 | 0.18 | 0.19 | 0.199 | 0.209 | 0.143 | 0.148 | 0.202 | 1.04 | 0.964 | 1.06 | 0.988 | 0.894 | 1.11 | 0.345 | 0.334 | 0.338 | 1.02 | 0.935 | 0.801
8 | PC-3 [JPC-3] | 0.54 | 0.563 | 0.567 | 0.495 | 0.569 | – | 0.381 | 0.532 | 0.8 | 0.724 | 0.7 | 0.984 | 0.887 | 0.899 | 0.441 | 0.551 | 0.501 | – | 0.763 | 0.75
9 | PC-14 | 0.654 | 0.4 | 0.494 | 0.538 | 0.577 | 0.345 | 0.254 | 0.198 | 1.14 | 1.11 | 0.412 | 1.23 | 1.07 | 0.888 | 0.309 | 0.357 | 0.447 | 0.216 | 0.228 | 0.216
10 | RERF-LC-KJ | 1.27 | 0.993 | 1.16 | 1.1 | 1.08 | 1.1 | 0.909 | 0.905 | 0.863 | 0.802 | 0.87 | 0.901 | 0.779 | 0.801 | 0.449 | 0.364 | 0.408 | 0.973 | 0.889 | 0.825

Source: the supplement of paper PMC10307832
